Reference: patent US20110313004A1, “DEUTERATED PYRIDINONES” (CONCERT PHARMACEUTICALS, INC., priority 2008, published 2011)

Test: Storage stability of the isolated compound at about −20° C.
Assay type: physicochemical
Details: storage for approximately 2 weeks at about −20° C.
Excerpt: Compound 139 was synthesized in the same manner as Compound 151 with the exception that 4-fluoro-2,3,5,6-d4-aniline (98% atom % D, CDN Isotopes) was used in place of D p-toluidine-d9 in step 1. ^1H NMR (CDCl3): δ 7.44 (dd, J=2.5, 9.6, 1H), 7.31 (d, J=2.5, 1H), 6.67 (d, J=9.3, 1H). MS (M+H): 226.1.
Compound 161 was synthesized in the same manner as Compound 101 (Example 1, Scheme 6, steps 1-3), except that 4-chloro-2,3,5,6-d4-aniline (98% atom % D, CDN Isotopes) was used in place of aniline in step 1. MS (M+H): 242.1.
A solution of (ethyl carbonic) 1-(4-(methoxy-d3)phenyl-d4)-6-oxo-1,6-dihydropyridine-3-carboxylic anhydride 27 (464 mg, approximately. 1.43 mmol) in THF (14.8 mL) was cooled to 10° C. and NaBD4 (98 atom % D, Cambridge Isotopes Laboratories) (295 mg, 7.01 mmol) was added. To the resulting slurry was added MeOD (1.42 mL) via syringe pump at a rate of 0.015 mL/min. Upon completion, the reaction was diluted with MeOD and concentrated nearly to dryness on a rotary evaporator. This process was repeated twice. The resulting solid was suspended in CH2Cl2, silica gel was added, the slurry concentrated to dryness in vacuo, and the resulting solid was added to the top of a silica gel column. Purification via column chromatography on an ISCO instrument (0 to 10% MeOH in CH2Cl2) provided impure final product. A further purification by ISCO (50 to 100% EtOAc in hexanes) followed by a preparatory HPLC purification afforded 116 mg of the final product 156 in approximately 85% purity. ^1H NMR (CDCl3): δ 7.43 (dd, J=2.7, 9.5, 1H), 7.31 (dd, J=0.6, 2.5, 1H), 6.66 (dd, J=0.6, 9.5, 1H). MS (M+H): 241.1.

condition of compound after storage | SMILES
decomposed | [2H]c1c([2H])c(-n2cc(C([2H])([2H])O)ccc2=O)c([2H])c([2H])c1F [Compound 139, 1-(4-Fluorophenyl-d4)-5-(hydroxy(methyl-d2))pyridin-2(1H)-one]
decomposed | [2H]c1c([2H])c(-n2cc(C([2H])([2H])O)ccc2=O)c([2H])c([2H])c1OC([2H])([2H])[2H] [Compound 156, 5-(Hydroxyl(methyl-d2))-1-(4-(methoxy-d3)phenyl-d4)pyridin-2(1H)-one]
decomposed | [2H]c1c([2H])c(-n2cc(C([2H])([2H])O)ccc2=O)c([2H])c([2H])c1Cl [Compound 161, 1-(4-Chlorophenyl-d4)-5-(hydroxy(methyl-d2))-pyridin-2(1H)-one]
